The values below come from patent publication US10604739B2, “Cardiomyocyte production” (Cellular Dynamics International, Inc., priority 2009, dated 2020).

Values joined by “and” are separate entries in the source; they are usually repeats but may differ in a detail not shown here. Identical values can stand only once.

The test system of series [1] is iPS 6.1 and iPS 6.1 MRB. Kind of series: iPS cell passaging with NaCitrate in Double Stacks. It counts as cell-based, human. The procedure:
Dissociated iPS cells were rinsed with D-PBS (Dulbecco's Phosphate Buffered Saline) free of Ca^2+ and Mg^2+ and the media were aspirated. The cells were then incubated with appropriate amount (i.e., 1 mL for one well of 6-well plate, 15 mL for T-150 flask, etc) of 15 mM NaCitrate, 165 mM KCl, pH 7.3, OSM 340, at room temperature for 6-15 minutes. After incubation, the NaCitrate solution were aspirated with the cells still loosely attached. The cells were resuspended in appropriate amount of TeSR with 1 μM H1152 and distributed to Matrigel™ surfaced vessel.
For scale up production of the starting material from T150 flasks to Corning Double Stacks, and for assessment of the ability of iPS cells to be passaged as single cells/small clumps with NaCitrate, iPS 6.1 and iPS 6.1 MRB were passaged with 15 mM NaCitrate as single cells or small cell clumps into double stacks while maintaining T150 control flasks split with dispase (see FIG. 1 for experimental design). […] Cells were assessed at passage 4 and passage 7 with cardiogenesis, pluripotency panel, and karyotype. […] Aggregate images and cTnT staining for cardiomyocytes were analyzed on day 14 after splitting (FIGS. 4A-D, FIGS. 5A-C, FIGS. 6A-B, FIGS. 7A-C). Pluripotency profiles of iPS cells after passaging with NaCitrate and dispase was compared by flow cytometry using five pluripotency markers (FIGS. 8A-C). It appears safe to passage iPS cells at least four times with the NaCitrate method.
Cardiogenesis was also analyzed for those iPS cells after passaging with NaCitrate and data were compiled in FIG. 9. […] The last three “spinner” samples come from Double Stack iPS 6.1 MRB cells that were left over from various Double stack harvests. An average yield of 110e6 cells/L was obtained in 1 L spinner with cells passaged in double stacks with NaCitrate.

Series [2] has as its system ROCK2. The note with it: ROCK1/ROCK2; cited from earlier work.
Series [3] deals with pluripotent stem cell-derived cardiomyocytes. To be noted: cited from earlier work.
For series [4], the system named is iPS6.1 cells. Kind of series: iPS6.1 Four Corners experiment, FGF x HGF cardiac induction. It counts as cell-based, human. The note with it: iPS6.1 cells, 25 ng/mL FGF and/or 50 ng/mL HGF, single T25 flask, day 14; listed as FGF only. On the procedure: (§1) Aggregate formation and cardiac induction procedures of those iPS cells at different initial densities were performed essentially the same as described in Examples 4 except different concentrations of human HGF (hHGF) and FGF were applied to Aggregate Formation Medium, Aggregate Transition Medium and Cardiac Induction Medium.
Concurrent with the second iPS growth factor titration, a simple experiment (Table 19) was set up with iPS6.1 cells to test the 2×2 matrix of 0 and 25 ng/mL FGF and 0 and 50 ng/mL HGF. The positive concentrations of FGF and HGF were chosen based on the current best practices for iPS6.1 cells at the time and were identical to the conditions used for cardiac induction of H1 cells in both the plated and suspension processes. This experiment confirmed previous work showing the necessity of FGF for the process.

The test system of series [5] is iPS6.1 cells. Description: iPS6.1 Growth Factor Titration #1. To be noted: hbFGF 0 or 25 ng/mL, FIGS. 29A-B. It counts as cell-based, human. On the procedure: as §1
Conditions without FGF had virtually no surviving aggregates and no measurable cardiomyocytes (FIGS. 29A-B). On the other hand, all conditions with FGF yielded cardiomyocytes independent of HGF concentration (FIGS. 29A-B).

Series [6] deals with H9-TGZ cells. Description: H9-TGZ Growth Factor Titration #2. It counts as cell-based, human. To be noted: FIGS. 31A-C. On the procedure: as §1
While the iPS6.1 optimization was underway, a separate series of experiments was conducted to optimize the growth factor concentrations for the H9-TGZ cells. […] Therefore, the FGF range tested was higher than that in the recent iPS6.1 experiments. This experiment confirmed that optimum cardiomyocyte production requires 100-150 ng/mL FGF with the H9-TGZ cells (FIGS. 31A-C).

The subject of series [7] is iPS6.1 cells. Kind of series: iPS6.1 Growth Factor Titration #2. It counts as cell-based, human. The note with it: hbFGF 3-100 ng/mL, FIGS. 30A-B. On the procedure: as §1
Based on the results of the first experiment (see FIGS. 29A-B), the second iPS6.1 growth factor titration focused on the lower dose range for both FGF and HGF (FIGS. 30A-B). […] However, it is important to note that in no case did the omission of HGF lead to the failure of a condition which was otherwise successful in the presence of HGF.

As to `O=C([O-])CC(O)(CC(=O)[O-])C(=O)[O-].[Na+].[Na+].[Na+]` [NaCitrate], in series [1] (1 L spinner, cells passaged in double stacks with NaCitrate), the “Average yield of cardiomyocytes” value was 110e6 cells/L. In addition, in series [1] (Double Stack NaCitrate conditions, 15 mM NaCitrate), the Doubling time was around 30 h. The Karyotype result in series [1] (cells split 4 times with NaCitrate) is recorded as “maintained a normal karyotype”.

Regarding `C[C@@H](N)[C@H]1CC[C@H](C(=O)Nc2ccncc2)CC1` [Y-27632], the IC50 in series [2] was […].

As for `COc1ccc([C@@H]2Sc3ccccc3N(CCN(C)C)C(=O)[C@@H]2OC(C)=O)cc1` [diltiazem], in series [3], the Contractile activity entry is listed as “inhibits contractile activity in a dose-dependent manner”.

As to `CC(C)NCC(O)c1ccc(O)c(O)c1` (centres unmarked) [isoprenaline], the Chronotropic effect result in series [3] is reported as “positive chronotropic effect”.

For `CNC[C@H](O)c1cccc(O)c1` [phenylephrine], in series [3], the Chronotropic effect result is on record as “positive chronotropic effect”.

Regarding “FGF: human recombinant basic FGF, R&D systems”, the “% cTNT+” value in series [4] is 11.2% and 11.9% and 13.1%. For the same compound, in series [5], the “Requirement for CM differentiation process” value was “required for the CM differentiation process to be successful”. Further, the “FGF concentration required for optimum cardiomyocyte production” value in series [6] was in the range of 100 to 150 ng/mL. In series [7], the “FGF dose response (aggregate survival, cardiogenesis)” value was “too little FGF led to poor aggregate survival and high doses had survival but lacked cardiogenesis”.
